Experimental data: patent US7786093B2, “Antistress agent” (Health Wellness Foods Corporation, priority 2004, dated 2010)

Experiments:
human mononuclear cells [1] = assay: IL-12 and IFN-γ production by mononuclear cells stimulated with heat-killed Lactobacillus plantarum L137, with DEX (ELISA); format: cell-based; settings: for IFN-γ / IL-12: DEX 10 nM, Lactobacillus plantarum L137 1.0 μg/mL, 24 h
Experimental: (§1) A 2 μg/mL solution of a mouse anti-human IFN-γ antibody (manufactured by Endogen Inc.) prepared in a borate buffer solution was added in 50 μL per one well on a 96-well ELISA plate, and the plate was allowed to stand at 4° C. for a day to adhere the mouse anti-human IFN-γ antibody to each well. The above-mentioned culture supernatant was added in 50 μL per one well on the ELISA plate adhering the mouse anti-human IFN-γ antibody, and the plate was allowed to stand at room temperature for 90 minutes, thereby binding the IFN-γ in the culture supernatant to the mouse anti-human IFN-γ antibody adhered on the plate. After washing the plate, a 0.5 μg/mL solution of a biotin-labeled mouse anti-human IFN-γ antibody (manufactured by Endogen Inc.) prepared in a borate buffer solution was added thereto in 100 μL per one well to bind to the IFN-γ bound with the mouse anti-human IFN-γ antibody adhered on the plate. After washing out an unbound biotin-labeled mouse anti-human IFN-γ antibody, a solution of Avidin-HRP (manufactured by BD PharMingen Inc.) diluted 1000-fold in a borate buffer solution was added thereto in 100 μL per one well to bind to the biotin-labeled mouse anti-human IFN-γ antibody bound with the IFN-γ. After washing out an excess of Avidin-HRP, a phosphate buffer solution containing 0.006 V/V % of hydrogen peroxide and 0.1 W/V % of orthophenylenediamine was added thereto in 100 μL per one well to allow to react at room temperature for 15 minutes, and then the reaction was stopped by addition of 1.5 N sulfuric acid. The absorbance at a measurement wavelength of 492 nm and a reference wavelength of 630 nm was measured, and the concentration of the IFN-γ in the culture supernatant was obtained from a calibration curve prepared with a recombinant IFN-γ.
To the culture was added a cell stimulatory factor, which was heated dead body cells of Lactobacillus plantarum L137, so as to make a final concentration of […]. […] After completion of the incubation, the amounts of IL-12 and IFN-γ in the culture supernatant were measured by the ELISA.

human mononuclear cells [2] = assay: Suppression by nigerose of the DEX-induced decrease in growth of ConA- or PHA-stimulated human mononuclear cells (WST-1 absorbance); format: cell-based; settings: for Absorbance (at 450 nm to 630 nm): DEX 10 nM, 24 h
Experimental: After a blood sample obtained from an adult was diluted two-fold with PBS, a Ficoll-Paque Plus solution (manufactured by Amersham Corporation) was added slowly to make double layers (blood diluted two-fold with PBS Ficoll-Paque Plus solution=4:3), which were centrifuged at the conditions of 400×g, 20° C. and 40 minutes. A mononuclear cell fraction present in the middle layer was recovered, and this mononuclear cell fraction washed twice with a 10-fold volume of PBS. The obtained mononuclear cells were suspended in an RPMI 1640 culture medium (manufactured by GIBCO BRL Corporation) to obtain a suspension of peripheral blood mononuclear cells. The number of cells in the suspension of peripheral blood mononuclear cells was measured with an automatic blood cell counter (manufactured by Sysmex Co., Ltd., Type CDA-500), and the mononuclear cells were suspended in RPMI 1640 culture medium so as to make the number of cells at a concentration of 2.0×10^6 cells/mL. This suspension was inoculated at 50 μL per one well on a 96-well tissue culture plate. To the inoculated suspension was added a solution of ConA or PHA in the RPMI 1640 culture medium in 50 μL per one well so as to make a final concentration of 2.0 μg/mL or 5.0 μg/mL, respectively. […] The mononuclear cells were incubated at 37° C. for 24 hours in a 5% CO2 incubator. At 4 hours before completion of the incubation, a solution of WST-1 (manufactured by Dojindo Laboratories Inc.), dissolved in 0.4 mM 1-methoxy PMS (manufactured by Dojindo Laboratories Inc.) to make a concentration of 10 mM, was added in 10 μL per one well, and the absorbance at a measurement wavelength of 450 nm and a reference wavelength of 630 nm was measured at the time of completion of the incubation.
WST-1, when taken into living cells, is reduced by a intracellular mitochondrial dehydrogenase to produce water-soluble formazan. Because the amount of the thus-produced formazan is proportional to the number of the living cells, the measurement of the absorbance of formazan can be made as an index of the cell growth.

human mononuclear cells [3] = assay: IFN-γ production by ConA- or PHA-stimulated mononuclear cells with DEX (ELISA); format: cell-based; settings: DEX 10 nM, 24 h
Experimental: (a) In a manner similar to that in Example 1, mononuclear cells were prepared from blood of an adult, and the cultivation was initiated at a concentration of 5.0×10^5 mononuclear cells/mL. In a manner similar to that in Example 1, ConA or PHA as a cell stimulatory factor was added to the culture in 50 μL per one well so as to make a final concentration of 2.0 μg/mL or 5.0 μg/mL, respectively, thereby inducing cytokine production. […] After completion of the incubation, the amount of IFN-γ in the culture supernatant was measured by the ELISA.
The determination by the ELISA is shown in the following.
as §1

[4] = tested on: spleen cells of BALB/c mice; assay: Final test: cytokine production of spleen cells from DEX-administered mice given nigerooligosaccharide in drinking water (ELISA); format: in vivo; settings: DEX 60 μg/mouse i.p., ion-exchanged water as drinking water
Experimental: The prepared spleen cells were suspended in an RPMI 1640 culture medium so as to make a concentration of 5.0×10^6 cells/mL. This suspension was inoculated in 100 μL per one well on a 96-well tissue culture plate, and further a solution of a cell stimulatory factor, (1) PHA or (2) LPS, dissolved in the RPMI 1640 culture medium so as to make a final concentration of 12.5 μg/mL or 20 μg/mL, respectively, was added in 100 μL per one well. The spleen cells were cultivated at 37° C. for 24 hours in a 5% CO2 incubator, and the concentrations of cytokines in the culture supernatant, IL-4 and IFN-γ for the foregoing (1) or IL-10 and TNF-α for the foregoing (2), were measured by the ELISA. The amount of IFN-γ was measured on the basis of the ELISA described in Example 2. The amounts of IL-4, IL-10 and TNF-α were measured in a manner similar to the ELISA described in Example 2, except that the IFN-γ in the ELISA described in Example 2 was replaced by IL-4, IL-10 or TNF-α.
Next, in this test, to 14 weeks old, female BALB/c mice (6 mice per one group) was given as a drinking water ion-exchanged water or a 1 W/V % solution of a highly pure nigerooligosaccharide (19.8% by weight of nigerose, 36.5% by weight of a trisaccharide fraction mainly composed of nigerosylglucose, 40.2% by weight of a tetra- or more saccharide fraction mainly composed of nigerosylmaltose, and 3.5% by weight of glucose) in ion-exchanged water, and the mice were fed with a commercially available feed. […] After 24 hours of the administration, the spleen was excised, and spleen cells were cultivated at the same conditions as those in the preliminary test, and the concentrations of cytokines in the culture supernatant were measured.

BALB/c mice = assay: Thymic and splenic atrophy due to DEX in mice; format: in vivo; settings: control group (commercial feed), DEX 200 μg/mouse i.p., 24 h, female BALB/c mice
Experimental: Female BALB/c mice (8 weeks old) were divided into a group fed with a commercially available feed (control group) and a group fed with a commercially available feed mixed with a nigerooligosaccharide liquid sugar (Nigero S: content of nigerooligosaccharide: 30.8% by weight; manufactured by Takeda Food Products, Ltd.) at a concentration of 5% by weight (nigerooligosaccharide group). […] After 24 hours of the administration, the thymus and spleen of each mouse were excised, and the weights of the excised thymus and spleen were measured.

human mononuclear cells [5] = assay: Activated apoptosis of mononuclear cells (ssDNA Apoptosis ELISA kit); format: cell-based; settings: for Absorbance (415 nm), degree of apoptosis: 24 h
Experimental: In a manner similar to that in Example 1, mononuclear cells were prepared from blood of an adult, and the cultivation was initiated at a concentration of 5.0×10^5 mononuclear cells/mL in a manner similar to that in Example 1. To the culture was added ConA or a hemolytic streptococcus preparation OK-432 (picibanil, manufactured by Chugai Pharmaceutical Co., Ltd.) as a cell stimulatory factor, so as to make a final concentrations of 2.0 μg/mL or 1.0 μg/mL, respectively. At this time, nigerose was added to each of the culture groups so as to make a concentration of 1.0 μg/mL and 10 μg/mL, where a nigerose-free control group was provided to each of the culture groups. The mononuclear cells were incubated at 37° C. for 24 hours in a 5% CO2 incubator. After completion of the incubation, apoptosis cells were fixed with an ssDNA Apoptosis ELISA kit (manufactured by Chemicon International, Inc.) which could specifically detect only the apoptosis cells, treated with a DNA-denaturing agent, then stained, and the absorbance (415 nm) was measured to quantify the degree of apoptosis.

[6] = nigerose 0 μg/mL, ConA 2.0 μg/mL
[7] = nigerose 0 μg/mL, PHA 5.0 μg/mL
[8] = nigerose 10 μg/mL, ConA 2.0 μg/mL
[9] = nigerose 1 μg/mL, ConA 2.0 μg/mL
[10] = nigerose 1 μg/mL, PHA 5.0 μg/mL
[11] = nigerose 10 μg/mL, PHA 5.0 μg/mL
[12] = nigerose 100 μg/mL, ConA 2.0 μg/mL
[13] = nigerose 100 μg/mL, PHA 5.0 μg/mL

## C[C@@H]1C[C@H]2[C@@H]3CCC4=CC(=O)C=C[C@]4(C)[C@@]3(F)[C@@H](O)C[C@]2(C)[C@@]1(O)C(=O)CO [DEX, Dexamethasone]
Human mononuclear cells [1]; nigerose 0 μg/mL
  IFN-γ: 1.748 ± 0.307 ng/mL
Human mononuclear cells [2]; [6]
  Absorbance (at 450 nm to 630 nm): 0.286 ± 0.004
Human mononuclear cells [2]; [7]
  Absorbance (at 450 nm to 630 nm): 0.299 ± 0.004
Human mononuclear cells [3]; [6]
  Amount of IFN-γ production: 0.106 ± 0.046 ng/mL
Human mononuclear cells [3]; [7]
  Amount of IFN-γ production: 0.119 ± 0.022 ng/mL
[4]; LPS
  IL-10 concentration in the culture supernatant: 0.021 ± 0.011 ng/mL
  TNF-α concentration in the culture supernatant: 0.373 ± 0.062 ng/mL
[4]; PHA
  IFN-γ concentration in the culture supernatant: 0.059 ± 0.027 ng/mL
  IL-4 concentration in the culture supernatant: 2.1 ± 0.8 pg/mL
BALB/c mice
  Weight of spleen: 78.3 ± 19.3 mg
  Weight of thymus: 28.8 ± 10.3 mg

## OC[C@H]1O[C@H](O[C@H]2[C@H](O)[C@@H](CO)OC(O)[C@@H]2O)[C@H](O)[C@@H](O)[C@@H]1O (some centres unmarked) [Nigerose, nigerose]
Human mononuclear cells [5]; nigerose 1.0 μg/mL, ConA 2.0 μg/mL
  Absorbance (415 nm), degree of apoptosis: 1.631 ± 0.175
Human mononuclear cells [5]; nigerose 1.0 μg/mL, OK-432 1.0 μg/mL
  Absorbance (415 nm), degree of apoptosis: 1.549 ± 0.276
Human mononuclear cells [5]; nigerose 1.0 μg/mL, culture solution (no cell stimulatory factor)
  Absorbance (415 nm), degree of apoptosis: 1.113 ± 0.053
Human mononuclear cells [5]; [8]
  Absorbance (415 nm), degree of apoptosis: 1.372 ± 0.165
Human mononuclear cells [5]; nigerose 10 μg/mL, OK-432 1.0 μg/mL
  Absorbance (415 nm), degree of apoptosis: 1.767 ± 0.203
Human mononuclear cells [5]; nigerose 10 μg/mL, culture solution (no cell stimulatory factor)
  Absorbance (415 nm), degree of apoptosis: 1.134 ± 0.065
Human mononuclear cells [5]; nigerose-added group
  effect on the apoptosis: suppressive effect
Human mononuclear cells [1]; addition of nigerose, Tables 2 and 3
  decrease of IL-12 and IFN-γ due to DEX: significantly suppressed concentration-dependently
Human mononuclear cells [1]; nigerose 0.1 μg/mL
  IFN-γ: 1.895 ± 0.816 ng/mL
  IL-12: 0.093 ± 0.021 ng/mL
Human mononuclear cells [1]; nigerose 1 μg/mL
  IFN-γ: 1.866 ± 0.890 ng/mL
  IL-12: 0.130 ± 0.042 ng/mL
Human mononuclear cells [1]; nigerose 10 μg/mL
  IFN-γ: 2.677 ± 1.000 ng/mL
  IL-12: 0.171 ± 0.016 ng/mL
Human mononuclear cells [2]; addition of nigerose, ConA or PHA stimulation
  decrease in the growth of mononuclear cells due to DEX: significantly suppressed concentration-dependently
Human mononuclear cells [2]; [9]
  Absorbance (at 450 nm to 630 nm): 0.289 ± 0.004
Human mononuclear cells [2]; [10]
  Absorbance (at 450 nm to 630 nm): 0.290 ± 0.002
Human mononuclear cells [2]; [8]
  Absorbance (at 450 nm to 630 nm): 0.307 ± 0.003
Human mononuclear cells [2]; [11]
  Absorbance (at 450 nm to 630 nm): 0.305 ± 0.009
Human mononuclear cells [2]; [12]
  Absorbance (at 450 nm to 630 nm): 0.319 ± 0.004
Human mononuclear cells [2]; [13]
  Absorbance (at 450 nm to 630 nm): 0.319 ± 0.007
Human mononuclear cells [3]; [9]
  Amount of IFN-γ production: 0.075 ± 0.070 ng/mL
Human mononuclear cells [3]; [10]
  Amount of IFN-γ production: 0.144 ± 0.022 ng/mL
Human mononuclear cells [3]; [8]
  Amount of IFN-γ production: 0.136 ± 0.095 ng/mL
Human mononuclear cells [3]; [11]
  Amount of IFN-γ production: 0.219 ± 0.095 ng/mL
Human mononuclear cells [3]; [12]
  Amount of IFN-γ production: 0.365 ± 0.053 ng/mL
Human mononuclear cells [3]; [13]
  Amount of IFN-γ production: 0.320 ± 0.038 ng/mL
